# In patent US20260097047A1, “Small molecule inhibitors of the ribosome biogenesis factor NVL2” (Board of Regents, The University of Texas System, priority 2023, published 2026):
# pIC50: −log10 of the molar value. Where two headings read alike, the source gives them in different places.
# Test system: HCT116 cells
# Experiment: Cell viability assay (CellTiter-Glo, 72 hours) in HCT116 human colorectal cancer cells
# Format: cell-based
# Details: HCT116, 72 hours, read-out: Activity
# Protocol: Cell culture: The HCT116 cell line was obtained from ATCC and cultured in Dulbecco's Modified Eagle's Medium (DMEM)-high glucose (Sigma Aldrich #D5796) supplemented with 10% fetal bovine serum (FBS) (Sigma-Aldrich #F2442) and 2 mM L-Glutamine (Sigma Aldrich #G7513). Cells were cultured at 37° C. in 5% CO2. The identity of all cell lines was confirmed by short tandem repeat (STR) analysis and confirmed to be mycoplasma-free using a PCR based assay (Genatlantis).
# Cell viability assay: In 96-well assay plates (Corning #2903), 2,000 cells were plated per well in 100 μL of medium and allowed to adhere overnight. The next day, compounds suspended in DMSO were dispensed to the assayed wells using a D300e Digital Dispenser (Tecan). All wells were normalized to 0.5% DMSO. 72 hours after incubation at 37° C. in 5% CO2, cell viability was assayed using an ATP-based luminescent viability assay, CellTiter-Glo (Promega #G8462). Substrate was mixed 1:1 with phosphate-buffered saline (PBS) supplemented with 1% Triton X-100, and 40 μL of this mixture was added to the assay wells. Plates were shaken on a microplate shaker for 10 minutes at room temperature. Luminescence (CellTiter-Glo) was recorded using a Synergy 2 microplate reader (BioTek). In Prism 9 software (GraphPad), ten-point dose response curves were plotted with baseline-correction to the vehicle control well, and IC50 values were calculated by curve fitting using asymmetric (five parameter), least squares fit.
SMILES,pIC50 (Table 5),pIC50 (Table 6)
C#CCN1C(=O)c2ccccc2Sc2cc(Nc3ncc(C)nc3C)ccc21,> 6.30,–
C#CCN1C(=O)c2ccccc2Sc2cc(Nc3ncc(C)cc3C)ccc21,> 6.30,–
C#CCN1C(=O)c2ccccc2Sc2cc(Nc3nc(C)cnc3C)ccc21,> 6.30,–
C#CCN1C(=O)c2ccccc2Sc2cc(Nc3nnccc3C)ccc21,> 6.30,–
C#CCN1C(=O)c2ccccc2Sc2cc(Nc3cccnn3)ccc21,> 6.30,–
C#CCN1C(=O)c2ccccc2Sc2cc(Nc3cccnn3)cnc21,> 6.30,–
CC=CCN1C(=O)c2ccccc2Sc2cc(Nc3ncccc3C#N)ccc21,> 6.30,–
CC=CCN1C(=O)c2ccccc2Sc2cc(Nc3ncccc3C#N)cnc21,> 6.30,–
CC=CCN1C(=O)c2ccccc2Sc2cc(Nc3ncccc3F)ccc21,> 6.30,–
CC=CCN1C(=O)c2ccccc2Sc2cc(Nc3ncccc3F)cnc21,> 6.30,–
CC=CCN1C(=O)c2ccccc2Sc2cc(Nc3nccnc3C)ccc21,> 6.30,–
CC=CCN1C(=O)c2ccccc2Sc2cc(Nc3nccnc3C)cnc21,> 6.30,–
CC=CCN1C(=O)c2ccccc2Sc2cc(Nc3ncccc3C)ccc21,> 6.30,–
CC=CCN1C(=O)c2ccccc2Sc2cc(Nc3ncccc3C)cnc21,> 6.30,–
CC=CCN1C(=O)c2ccccc2Sc2cc(Nc3ncc(C)cc3C)ccc21,> 6.30,–
CC=CCN1C(=O)c2ccccc2Sc2cc(Nc3ncc(C)cc3C)cnc21,> 6.30,–
CCCC=CCN1C(=O)c2ccccc2Sc2cc(Nc3ncccc3C#N)cnc21,> 6.30,–
CCCC=CCN1C(=O)c2ccccc2Sc2cc(Nc3ncccc3F)cnc21,> 6.30,–
CCCC=CCN1C(=O)c2ccccc2Sc2cc(Nc3nccnc3C)cnc21,> 6.30,–
CCCC=CCN1C(=O)c2ccccc2Sc2cc(Nc3ncc(C)cc3C)cnc21,> 6.30,–
CC#CCN1C(=O)c2ccccc2Cc2cc(NC3CC(CO)C3)ccc21 (stereo not shown),–,> 6.30
CC#CCN1C(=O)c2ccccc2Cc2cc(NC34CC(OC)(C3)C4)ccc21,–,> 6.30
CC#CCN1C(=O)c2ccccc2Cc2cc(NC3CC(COC)C3)ccc21 (stereo not shown),–,> 6.30
CC#CCN1C(=O)c2ccccc2Cc2cc(NC3CC4(CC(O)C4)C3)ccc21 (stereo not shown),–,> 6.30

# Results, then the compound that gave them:
pIC50 (Table 5),pIC50 (Table 6),SMILES
> 6.30,–,Cc1cnc(Nc2cnc3c(c2)Sc2ccccc2C(=O)N3CC#CCl)c(C)n1
> 6.30,–,Cc1cnc(Nc2cnc3c(c2)Sc2ccccc2C(=O)N3CC#CCl)c(C)c1
> 6.30,–,Cc1cnc(C)c(Nc2cnc3c(c2)Sc2ccccc2C(=O)N3CC#CCl)n1
> 6.30,–,Cc1ccnnc1Nc1cnc2c(c1)Sc1ccccc1C(=O)N2CC#CCl
> 6.30,–,C#CCN1C(=O)c2ccccc2Sc2cc(Nc3nc(C)ccc3F)cnc21
> 6.30,–,C#CCN1C(=O)c2ccccc2Sc2cc(Nc3ncc(C)nc3C)cnc21
> 6.30,–,C#CCN1C(=O)c2ccccc2Sc2cc(Nc3ncc(C)cc3C)cnc21
> 6.30,–,C#CCN1C(=O)c2ccccc2Sc2cc(Nc3nc(C)cnc3C)cnc21
> 6.30,–,CC#CCN1C(=O)c2ccccc2Sc2cc(Nc3ncccc3C#N)cnc21
> 6.30,–,CC#CCN1C(=O)c2ccccc2Sc2cc(Nc3ncccc3F)cnc21
> 6.30,–,CC#CCN1C(=O)c2ccccc2Sc2cc(Nc3ncccc3C)cnc21
–,> 6.30,O=C1c2ccccc2Sc2cc(NC3CC4(COC4)C3)ccc2N1CC#CCl
–,> 6.30,O=C1c2ccccc2Sc2cc(NC3CC4(COC4)C3)cnc2N1CC#CCl
–,> 6.30,COCC1CC(Nc2ccc3c(c2)Sc2ccccc2C(=O)N3CC#CCl)C1 (stereo not shown)
–,> 6.30,C#CCN1C(=O)c2ccccc2Sc2cc(NC3CC4(COC4)C3)cnc21
–,> 6.30,CC#CCN1C(=O)c2ccccc2Sc2cc(NC3CC4(COC4)C3)cnc21
–,> 6.30,CC#CCN1C(=O)c2ccccc2Sc2cc(NC34CC(OC)(C3)C4)ccc21
–,> 6.30,CC#CCN1C(=O)c2ccccc2Sc2cc(NC34CC(OC)(C3)C4)cnc21
–,> 6.30,CC#CCN1C(=O)c2ccccc2Sc2cc(NC3CC(COC)C3)ccc21 (stereo not shown)
–,> 6.30,CC#CCN1C(=O)c2ccccc2Sc2cc(NC3CC4(CC(O)C4)C3)ccc21 (stereo not shown)
–,> 6.30,CC#CCN1C(=O)c2ccccc2Sc2cc(NC3CC4(CC(O)C4)C3)cnc21 (stereo not shown)
–,> 6.30,CC#CCN1C(=O)c2ccccc2Sc2cc(NC3CC4(CC(=O)C4)C3)cnc21
